Results taken from patent publication US20040213826A1, “Medical devices and methods for inhibiting proliferation of smooth muscle cells” (priority 2003, published 2004).
Like-named read-outs stand apart in the source and are kept apart here.

Tests used:
[1] = test system: vascular-endothelial-growth-factor-stimulated human umbilical endothelial cells; conditions: cited from earlier work
embryoid bodies = conditions: cited from earlier work
RASM cells = experiment: Cell viability by trypan blue staining; assay type: cell-based, rat; conditions: 100 ng/ml, 48 h
Description: (§1) Low-passage rat aortic smooth muscle cells (RASM cells) from primary isolates and human aortic smooth muscle cells (HASM cells) were obtained and grown according to the suppliers' instructions. RASM cells were cultured in a medium comprising DMEM+10% FBS+100 U/ml penicillin and […], which was changed every 48 h. Micro-cultures of 5000 cells of each of the RASM and HASM were established in quadruplicate, placedin flat-bottom 96-well micro-titer plates, and exposed to various concentrations of the trichostatin-A, oxamflatin, and rapamycin. Trichostatin-A and oxamflatin were dissolved in dimethyl sulfoxide (DMSO) at various concentrations, and stored at −20° C. prior to use; rapamycin was dissolved in methanol (100 nM). After 48 h following initial exposure, the cultures were pulsed with […] of a cell-proliferation assay solution (Promega CellTiter 96 AQueous One Solution, Catalog G3580), and incubated for 1 h. The cultures' light absorbance was then measured on a BioRad Benchmark micro-plate reader, which was set to the range Ab 490 nm-Ab 655 nm. Light absorbed by the blank was accounted for in the tests. All experiments were repeated at least twice. Cell viability was determined using trypan blue staining, after incubating RASM cells with 100 ng/ml of rapamycin and trichostatin-A for 48 h.

[2] = cited from earlier work
[3] = test system: IL-2 expression in Jurkat cells; conditions: read-out: IC50, inhibition of IL-2 expression; cited from earlier work
[4] = test system: primary cultured SMCs from rat thoracic aorta; conditions: 1 μg/ml; cited from earlier work
[5] = test system: porcine coronary arteries; conditions: 1 mM; cited from earlier work
[6] = test system: rat aortic smooth muscle cells (RASM cells); experiment: RASM cell proliferation assay (Promega CellTiter 96 AQueous One Solution); assay type: cell-based; conditions: for inhibition of RASM cell proliferation (in words) / IC50, inhibition of SMC proliferation: RASM cells, 48 h exposure; for IC50, inhibition of SMC proliferation: light absorption
Description: as §1
Referring to FIG. 1, micro-cultures consisting of RASM cells were plated into a 96-well dish, and exposed as follows: a number of the micro-cultures were sham exposed, a number were exposed to rapamycin (5, 10, and 50 ng/ml, respectively), and a number were exposed to trichostatin-A ([…], respectively). The RASM cells were exposed for 48 h, prior to assessing cell proliferation.
Referring to FIG. 2, micro-cultures of RASM cells were plated into a 96-well dish, and exposed as follows: a number of the micro-cultures were sham exposed, and a number were exposed to oxamflatin (5, 10, 50, 100, 200 and 500 ng/ml, respectively)., The RASM cells were exposed for 48 h before assessing cell proliferation.

| Molecule | invasion of type I collagen gel and formation of capillary like structures ([1]; concentration not given) | angiogenesis in embryoid bodies (embryoid bodies; 400 nM) | cell viability, trypan blue exclusion, versus control cells (RASM cells) | solubility [2] | IC50 [3] | PDGF-induced competence of primary cultured SMCs [4] | invasion of type I collagen gel and formation of capillary like structures ([1]; 400 nM) | NO-dependent relaxation of porcine coronary arteries [5] | angiogenesis in embryoid bodies (embryoid bodies; 10 nM) | inhibition of RASM cell proliferation (in words) [6] | IC50, inhibition of SMC proliferation [6] | inhibition of RASM cell proliferation compared with rapamycin ([6]; equal concentrations of 50 ng/ml, 48 h) |
| --- | --- | --- | --- | --- | --- | --- | --- | --- | --- | --- | --- | --- |
| O=C(CCCCCCC(=O)Nc1ccccc1)NO [SAHA, suberoylanilide hydroxamic acid] | prevent | inhibit angiogenesis | – | – | – | – | – | – | – | – | – | – |
| CC(/C=C/C(=O)NO)=C\[C@@H](C)C(=O)c1ccc(N(C)C)cc1 [trichostatin-A] | – | – | no significant difference | soluble in DMSO and ethanol | 0.073 µM | inhibited | prevent | attenuated | inhibit angiogenesis | significant inhibition of SMC proliferation | ~0.02 µg/mL | greater than that exhibited by rapamycin |
| oxamflatin | – | – | – | – | – | – | – | – | – | inhibited RASM cell proliferation | ~0.075 µg/mL | – |
